Source: ChEMBL document CHEMBL1149627, “Erythrocarpines A-E, new cytotoxic limonoids from Chisocheton erythrocarpus” (Bioorg Med Chem, 2007)
In brackets after ≈: the same amount, converted by molar mass.

Each molecule was assayed on P388 (assay: Cytotoxicity against mouse P388 cells by MTT assay).
Assay type: functional, cell-based

Compound	IC50 [µg/mL]
COC(=O)C[C@H]1C(C)(C)[C@H](OC(=O)c2ccccc2)[C@@H]2C=C3C4=CC(=O)O[C@@H](c5ccoc5)[C@]4(C)CC[C@@H]3[C@@]1(C)C2=O [ERYTHROCARPINE A]	2 (≈ 3.49 µM)
COC(=O)C[C@H]1C(C)(C)[C@H](OC(=O)c2ccccc2)[C@@H]2C=C3[C@H](CC[C@@]4(C)[C@H](c5ccoc5)OC(=O)C[C@@]34O)[C@@]1(C)C2=O [ERYTHROCARPINE B]	6 (≈ 10.2 µM)
COC(=O)C[C@H]1C(C)(C)[C@H](OC(=O)/C=C/c2ccccc2)[C@@H]2C=C3[C@H](CC[C@@]4(C)[C@H](c5ccoc5)OC(=O)C[C@@]34O)[C@@]1(C)C2=O [ERYTHROCARPINE C]	9.9 (≈ 16.1 µM)
COC(=O)C[C@H]1[C@@]2(C)CO[C@]3(O)[C@@H](C=C4C5=CC(=O)O[C@@H](c6ccoc6)[C@]5(C)CC[C@@H]4[C@]13C)[C@H]2OC(=O)/C=C/c1ccccc1 [ERYTHROCARPINE D]	10 (≈ 16.3 µM)
COC(=O)C[C@H]1[C@@]2(C)CO[C@]3(O)[C@@H](C=C4[C@H](CC[C@@]5(C)[C@H](c6ccoc6)OC(=O)C[C@@]45O)[C@]13C)[C@H]2OC(=O)/C=C/c1ccccc1 [ERYTHROCARPINE E]	16 (≈ 25.3 µM)
CO[C@@]12[C@H](COC(N)=O)C3=C(C(=O)C(C)=C(N)C3=O)N1C[C@@H]1N[C@@H]12 [MITOMYCIN]	0.15 (≈ 0.449 µM)
